Consider five molecules from US20220280450A1, “PREVENTION AND TREATMENT OF CORONAVIRUS AND RELATED RESPIRATORY INFECTIONS” (PhilERA New Zealand Ltd., priority 2021, published 2022).

One may read the Tmax as the time at which the peak concentration occurs. A word on the CL/F: it is clearance divided by bioavailability, as obtained after extravascular dosing. The term efflux ratio denotes a quotient of directional permeabilities that is used to spot active efflux. Broadly, the Papp B→A is the apparent permeability from the basolateral to the apical side of a cell layer.

Where “and” joins values, the source holds several entries; their conditions need not be identical. Identical values can stand only once.

The conditions of series [1]: human, in vivo.
The nature of series [2]: clinical. The note with it: human, in vivo.
Series [3] in a line: clinical. The settings on record: human, in vivo. The source holds these as a separate data set.
In a further series the test system is urinary copper excretion. The note with it: in vivo, po.
Another series concerns P-gp. In words: Permeability in Caco-2 barrier model. The settings on record: human. The method, then:
(§1) Digoxin was used as marker to check for Pgp activity in the cultures. […] Samples were recovered from receptor compartments after 0, 15, 30, 45, 60, and 120 minutes, and further analyzed by liquid scintillation counting. Samples were also recovered a time 0 and 120 minutes from the donor compartments for mass balance evaluation. Each condition was performed in 3 replicated transwell filters in the presence of the Caco-2 barrier.
A general note: Passage across Caco-2 layers is used to estimate intestinal permeability.

Series [4] relates to Pgp. In words: Permeability in Caco-2 barrier model. The settings on record: human. The procedure:
as §1

Series [5] addresses Pgp (Homo sapiens, UniProt P08183). The note with it: PX811019 0.2 mM applied basolaterally.
[6] abbreviates: population mean (% CV in table).

Sequence of Pgp (Homo sapiens, UniProt P08183) (P08183 whole entry): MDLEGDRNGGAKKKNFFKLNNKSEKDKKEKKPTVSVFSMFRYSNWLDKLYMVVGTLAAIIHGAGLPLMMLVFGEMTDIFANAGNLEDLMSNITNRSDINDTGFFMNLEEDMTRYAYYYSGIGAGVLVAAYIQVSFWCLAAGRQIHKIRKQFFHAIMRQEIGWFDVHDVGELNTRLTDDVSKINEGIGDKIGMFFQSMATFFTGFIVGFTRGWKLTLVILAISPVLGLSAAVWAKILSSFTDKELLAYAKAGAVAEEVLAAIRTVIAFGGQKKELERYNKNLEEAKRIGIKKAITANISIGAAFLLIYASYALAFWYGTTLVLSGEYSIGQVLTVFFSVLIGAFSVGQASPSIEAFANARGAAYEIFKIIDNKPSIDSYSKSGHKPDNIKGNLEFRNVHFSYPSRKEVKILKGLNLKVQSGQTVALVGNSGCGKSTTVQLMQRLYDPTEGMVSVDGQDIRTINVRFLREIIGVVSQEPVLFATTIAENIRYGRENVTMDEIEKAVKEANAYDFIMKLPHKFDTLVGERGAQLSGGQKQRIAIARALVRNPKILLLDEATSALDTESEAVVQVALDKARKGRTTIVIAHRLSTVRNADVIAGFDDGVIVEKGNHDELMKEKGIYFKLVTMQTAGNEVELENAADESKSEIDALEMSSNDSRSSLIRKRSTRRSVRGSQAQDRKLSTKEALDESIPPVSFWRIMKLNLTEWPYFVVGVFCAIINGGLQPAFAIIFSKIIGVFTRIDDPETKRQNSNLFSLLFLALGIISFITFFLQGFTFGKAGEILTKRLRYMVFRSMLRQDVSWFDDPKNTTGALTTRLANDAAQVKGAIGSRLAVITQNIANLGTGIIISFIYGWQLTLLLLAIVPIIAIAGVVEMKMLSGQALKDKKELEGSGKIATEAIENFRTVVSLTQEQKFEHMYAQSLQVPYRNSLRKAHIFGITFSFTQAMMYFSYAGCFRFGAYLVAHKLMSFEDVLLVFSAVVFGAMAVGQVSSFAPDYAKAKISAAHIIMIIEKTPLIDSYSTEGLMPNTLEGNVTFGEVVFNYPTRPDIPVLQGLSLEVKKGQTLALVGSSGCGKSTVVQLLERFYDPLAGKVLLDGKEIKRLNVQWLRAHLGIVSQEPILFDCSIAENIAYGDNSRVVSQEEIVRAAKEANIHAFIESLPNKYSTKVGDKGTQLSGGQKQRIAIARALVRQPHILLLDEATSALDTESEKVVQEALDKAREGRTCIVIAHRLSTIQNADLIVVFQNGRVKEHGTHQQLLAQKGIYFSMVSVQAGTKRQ

For the molecule `CC(=O)NCCNCCNCCNC(C)=O` [DAT, N1,N10-diacetyltriethylenetetramine], the “Cmax of DAT relative to MAT” value in series [1] was 3-4 fold lower. Under “estimate (% CV in table)”, the “Inter-individual variability of CLD/F/frM/frD” value is 55.9% and 55.9 (18.1) [1.5] %; the “Inter-individual variability of VP,D/F/frM/frD” value is 86.8% and 86.8 (29.4) [2.7] %. The “Apparent volume for DAT, VP,D/F/frM/frD” value under setting [6] was 197 L and 197 (17.7) L. In addition, in “clinical [2]”, the Tmax fell in the range of 5 to 6 h. For the same molecule, the CL/F in “clinical [3]” is 5100 mL/min.

With `NCCNCCNCCN.O=C(O)CCC(=O)O.O=C(O)CCC(=O)O` [PX811019, triethylenetetramine disuccinate], in the series with urinary copper excretion, the “Level of cupriuresis versus dose” value is “approximately the same at 435 and 1305 mg PX811019 and increased at the highest dose of 2175 mg”. Besides, the Tmax in the series “clinical [2]” is 1.25 to 2 h.

Take `NCCNCCNCCN` [TETA, triethylenetetramine]: the “Increase of model predicted VT,T/F for every 100 mg difference from the 750 mg dose” value (human, in vivo) is 6.37%. Besides, under “in vivo”, the “Inter-individual variability of SL · ER0” value is 58.1% and 58.1 (25.1) [7.8] %; the “Slope (SL) of copper excretion versus TETA concentration” value is reported as 41.8 (mg/L)^−1. For the same molecule, the CL/F in the series “clinical [3]” was 2350 mL/min.

Turning to `CC(=O)NCCNCCNCCN` [MAT, N1-acetyltriethylenetetramine], under “estimate (% CV in table)”, the “Inter-individual variability of CLM/F/frM” value is 41.5% and 41.5 (15.1) [2.9] %; the “Inter-individual variability of VP,M/F/frM” value is 55.1% and 55.1 (17.4) [2.7] %. Moreover, under setting [6], the “Apparent volume for MAT, VP,M/F/frM” value was 426 L and 426 (9.8) L; the “Mean transit time for MAT formation” value was 0.381 h and 0.381 (34.2) h. Besides, the CL/F in the series “clinical [3]” was 1270 mL/min.

`C[C@H]1O[C@@H](O[C@H]2[C@@H](O)C[C@H](O[C@H]3[C@@H](O)C[C@H](O[C@H]4CC[C@@]5(C)[C@H](CC[C@@H]6[C@@H]5C[C@@H](O)[C@]5(C)[C@@H](C7=CC(=O)OC7)CC[C@]65O)C4)O[C@@H]3C)O[C@@H]2C)C[C@H](O)[C@@H]1O` [Digoxin]: the efflux ratio in the series with P-gp was found to be 8.06. This molecule also yielded a Papp B→A in the series on Pgp [4] of 6.08 ×10⁻⁶ cm/s. On Pgp [5], the “Papp B-A of Digoxin in presence of PX811019” value is reported as 5.68±3.03×10^−6 cm/s.
